These results are taken from publication PMC9949657 (PLOS ONE, 2023).

Experiment [1] concerns ovariectomized cynomolgus monkeys. Further details: method as in PMID 21497676. The settings on record: cited from earlier work.
Experiment [2] relates to patients with RA. Further details: method as in PMID 31036625. The settings on record: compared with placebo, clinical trials for RA; cited from earlier work.
The test system of experiment [3] is mouse collagen-induced arthritis (CIA) model. Put plainly: Histopathological evaluation in the mouse CIA model. The experiment is classed as in vivo. The settings on record: Prednisolone 3 mg/kg oral, 15 days. The protocol:
(§1) For the mouse CIA model, male DBA/1JNCrlj mice (7 weeks old) were injected with complete Freund’s adjuvant (CFA) (BD Biosciences) containing 2 mg/mL of bovine type II collagen at a site on the back (each 0.1 mL) and were boosted 21 days later in a similar manner. Arthritis scores were determined as previously reported.
On the day after the final administration, the four limbs of each mouse were harvested and decalcified in […]. The specimens were then embedded in paraffin blocks, cut into sections, stained with hematoxylin and eosin, and randomly selected for microscopic examination. Histopathological assessments were performed as described previously. This experiment was carried out in the laboratory of the BoZo Research Center Inc. (Ibaraki, Japan).

Experiment [4] has the same test system. Put plainly: Mouse CIA model, arthritis score of hind paws (21-day treatment). In kind it is in vivo. The settings on record: Prednisolone 3 mg/kg oral once daily. The protocol:
as §1

For experiment [5] the test system is unchanged. Nature of the experiment: Mouse CIA model, arthritis score (15-day treatment). The experiment is classed as in vivo. The settings on record: Prednisolone 3 mg/kg oral once daily. The protocol: as §1
Experiment [6] relates to rat collagen-induced arthritis (CIA) model. Nature of the experiment: Rat CIA model, hind paw volume. The settings on record: Prednisolone 1 mg/kg oral once daily. Also on record: unit not given beside the values. The experiment is classed as in vivo. The protocol:
For the rat CIA model, experimental arthritis was induced and volumes of both hind paws were measured as previously described.

In experiment [7] the test system is mouse collagen-induced arthritis (CIA) model. Nature of the experiment: Micro-CT imaging in the CIA model (BMD). In kind it is in vivo. The settings on record: for BMD: Prednisolone 3 mg/kg oral once daily. The protocol: as §1
The bone morphology of CIA mice was evaluated via micro-CT using Cosmo Scan (Rigaku, Tokyo, Japan). Hind paws of the mice were scanned using the following scanning conditions: 90 kV; 88 μA; field of view, 25 mm; 2 min. The BMD was calculated using the Analyze version 11.0 software (Biomedical Imaging Resource, Mayo Clinic, Rochester, MN). The bone was determined to have a BMD value ≥480 mg/cm^3, and the region of interest for calculating the BMD included the talus and cuboid. BMD was calibrated using a QRM-MicroCT-HA phantom (Quality Assurance in Radiology and Medicine, Moehrendorg, Germany) that was scanned on each day when micro-CT of animals was performed. Calibration was performed via scanning phantoms with densities of 0, 50, 200, 800, and 1200 mg HA/cm^3, and data analysis was performed using the Analyze11.0 Bone Mineral Density Analysis procedure.

Regarding “denosumab: anti-human RANKL monoclonal antibody”, in experiment [1], the “BMD and bone strength” value is given as “improved”. In addition, the bone erosion progression result in experiment [2] was “inhibited”.

Regarding `C[C@]12C=CC(=O)C=C1CC[C@@H]1[C@@H]2[C@@H](O)C[C@@]2(C)[C@H]1CC[C@]2(O)C(=O)CO` [Prednisolone, prednisolone], in experiment [3], the “Histological score, Bone damage” value is listed as 3.50. Besides, the “Histological score, Cartilage damage” value in experiment [3] is reported as 4.75. The “Histological score, Inflammation” value in experiment [3] was determined as 5.25. In experiment [3], the “Histological score, Pannus” value was determined as 4.13. Also, the “Arthritis score of hind paws” value in experiment [4] (day 1) worked out at 7.33; in experiment [4] (day 8) it was 6.58; in experiment [4] (day 14), 5.75; in experiment [4] (day 22) it was 4.75. Also, the Arthritis score in experiment [5] (day 1) was 6.63; in experiment [5] (day 4), 7.88; in experiment [5] (day 8), 8.38; in experiment [5] (day 11), 7.88; in experiment [5] (day 15) it was 2.88. Moreover, the Hind paws volume is recorded as 2.1 in experiment [6] (day 0); 2.12 in experiment [6] (day 4); 2.09 in experiment [6] (day 7); 2.16 in experiment [6] (day 11); 2.18 in experiment [6] (day 14); 2.25 in experiment [6] (day 18). Moreover, the Hind paws volume in experiment [6] (day 21) is listed as 2.37. For the same compound, the BMD stood at 957.82 mg/mL in experiment [7] (day 1), 961.86 mg/mL in experiment [7] (day 8), 984.25 mg/mL in experiment [7] (day 14) and 1000.83 mg/mL in experiment [7] (day 22). Besides, the “decline in BMD, effect compared with vehicle” value in experiment [7] (Prednisolone 3 mg/kg/day, 21 days) was “did not exhibit significant therapeutic effects”.
